Results as given in ChEMBL document CHEMBL3244247, “Beta-Adrenergic blocking agents. 15. 1-Substituted ureidophenoxy-3-amino-2-propanols” (1977).

Assays:
[1] = system: Felis catus; assay: In vivo inhibition of beta-2 adrenergic receptor in cat assessed as inhibition of isoproterenol-induced vasodepressor response at ED50 administered as 30 mins of infusion measured at 30 mins relative to control; assay type: functional
[2] = system: Felis catus; assay: In vivo inhibition of beta-1 adrenergic receptor in cat assessed as inhibition of isoproterenol-induced tachycardia administered as 30 mins of infusion measured at 30 mins by cardiotachometer; assay type: functional; settings: 0.5 h

SMILES	inhibition (INH) [1] [%]	ED50 [2] [mg/kg]
CCCCNC(=O)Nc1ccc(OCC(O)CNC(C)(C)C)c(Cl)c1 (centres undefined)	0	0.008
CCCCNC(=O)Nc1ccc(OCC(O)CNC(C)(C)C)c(C)c1 (centres undefined)	11	0.012
CCCc1cc(NC(=O)NC)ccc1OCC(O)CNC(C)(C)C (centres undefined)	7	0.093
C=CCc1cc(NC(=O)NC)ccc1OCC(O)CNC(C)(C)C (centres undefined)	74	0.056
CCNC(=O)Nc1ccc(OCC(O)CNC(C)(C)C)c(C)c1 (centres undefined)	58	0.057
Cc1cc(NC(=O)NC(C)C)ccc1OCC(O)CNC(C)(C)C (centres undefined)	5	0.049
CCNC(=O)Nc1ccc(OCC(O)CNC(C)COP)c(C)c1 (centres undefined)	18	0.885
CNC(=O)Nc1ccc(OCC(O)CNC(C)C)c(C)c1 (centres undefined)	32	0.17
C=CCNC(=O)Nc1ccc(OCC(O)CNC(C)(C)C)cc1 (centres undefined)	6	0.089
CC(C)NC(=O)Nc1ccc(OCC(O)CNC(C)(C)C)cc1 (centres undefined)	24	0.095
CCNC(=O)Nc1ccc(OCC(O)CNC(C)C)c(Br)c1 (centres undefined)	19	0.069
CC(C)(C)NCC(O)COc1ccc(NC(N)=O)cc1 (centres undefined)	0	0.101
CCNC(=O)Nc1ccc(OCC(O)CNC(C)(C)C)c(CC)c1 (centres undefined)	2	0.08
CNC(=O)Nc1ccc(OCC(O)CNC(C)C)c(I)c1 (centres undefined)	33	0.1
C=CCc1cc(NC(=O)NCC)ccc1OCC(O)CNC(C)(C)C (centres undefined)	30	0.038
CC(C)(C)NCC(O)COc1ccc(NC(=O)Nc2ccc(Cl)cc2)cc1 (centres undefined)	39	0.403
CNC(=O)Nc1ccc(OCC(O)CNC(C)(C)C)c(Cl)c1 (centres undefined)	52	0.025
CCNC(=O)Nc1ccc(OCC(O)CNC(C)C)c(O)c1 (centres undefined)	15	0.521
C=CCNC(=O)Nc1ccc(OCC(O)CNC(C)C)cc1 (centres undefined)	70	0.262
CCCCNC(=O)Nc1ccc(OCC(O)CNC(C)C)c(C)c1 (centres undefined)	0	0.046
C=CCNC(=O)Nc1ccc(OCC(O)CNC(C)C)c(Cl)c1 (centres undefined)	43	0.131

SMILES	inhibition (INH) [1] [%]	ED50 [2] [mg/kg]
CNC(=O)Nc1ccc(OCC(O)CNC(C)C)c(C(C)=O)c1 (centres undefined)	43	0.395
C=CCNC(=O)Nc1ccc(OCC(O)CNC(C)(C)C)c(Cl)c1 (centres undefined)	19	0.022
CNC(=O)Nc1ccc(OCC(O)CNC(C)(C)C)cc1 (centres undefined)	0	0.074
CC(C)NCC(O)COc1ccc(NC(=O)NC2CCCCC2)cc1Cl (centres undefined)	14	0.252
CCCCNC(=O)Nc1ccc(OCC(O)CNC(C)(C)C)cc1 (centres undefined)	0	0.048
CC(=O)Nc1ccc(OCC(O)CNC(C)C)cc1 (centres undefined) [PRACTOLOL]	8	0.167
CCCCCCCCNC(=O)Nc1ccc(OCC(O)CNC(C)C)c(C)c1 (centres undefined)	28	0.169
C=CCc1cc(NC(=O)NCC)ccc1OCC(O)CNC(C)(C)CO (centres undefined)	50	0.224
Cc1cc(NC(=O)NC(C)C)ccc1OCC(O)CNC(C)C (centres undefined)	57	0.438
CCNC(=O)Nc1ccc(OCC(O)CNC(C)C)c(OCC)c1 (centres undefined)	41	0.295
C=CCNC(=O)Nc1ccc(OCC(O)CNC(C)C)c(C)c1 (centres undefined)	12	0.107
CCCNC(=O)Nc1ccc(OCC(O)CNC(C)C)c(I)c1 (centres undefined)	100	0.077
CCNC(=O)Nc1ccc(OCC(O)CNC(C)(C)C)c(I)c1 (centres undefined)	6	0.023
CCCCCCCCNC(=O)Nc1ccc(OCC(O)CNC(C)(C)C)c(C)c1 (centres undefined)	11	0.08
CCCCCCNC(=O)Nc1ccc(OCC(O)CNC(C)C)c(C)c1 (centres undefined)	19	0.189
CCNC(=O)Nc1ccc(OCC(O)CNC(C)(C)C)cc1 (centres undefined)	34	0.201
C=CCc1cc(NC(=O)NCC)ccc1OCC(O)CNC1CC1 (centres undefined)	37	1.14
CCNC(=O)Nc1ccccc1OCC(O)CNC(C)C (centres undefined)	103	3.24
C=CCc1cc(NC(=O)NCC)ccc1OCC(O)CNC(C)C (centres undefined)	68	0.18
CNC(=O)Nc1ccc(OCC(O)CNC(C)C)c(Cl)c1 (centres undefined)	26	0.104
CC(C)NCC(O)COc1cccc2ccccc12 (centres undefined) [PROPRANOLOL]	85	0.062

SMILES	inhibition (INH) [1] [%]	ED50 [2] [mg/kg]
CCCNC(=O)Nc1ccc(OCC(O)CNC(C)(C)C)c(C)c1 (centres undefined)	0	0.044
CCCCNC(=O)Nc1ccc(OCC(O)CNC(C)C)cc1 (centres undefined)	0	0.416
C=CCNC(=O)Nc1ccc(OCC(O)CNC(C)(C)C)c(C)c1 (centres undefined)	32	0.045
CCCCCCNC(=O)Nc1ccc(OCC(O)CNC(C)(C)C)c(C)c1 (centres undefined)	50	0.03
CCCNC(=O)Nc1ccc(OCC(O)CNC(C)C)cc1 (centres undefined)	0	0.147
C=CCc1cc(NC(=O)NCCC)ccc1OCC(O)CNC(C)C (centres undefined)	15	0.213
CCNC(=O)Nc1ccc(OCC(O)CNC(C)C)cc1 (centres undefined)	0	0.427
CCCCCCNC(=O)Nc1ccc(OCC(O)CNC(C)(C)C)cc1 (centres undefined)	30	0.094
CCNC(=O)Nc1ccc(OCC(O)CNC(C)C)c(C)c1 (centres undefined)	27	0.234
CCCCCCNC(=O)Nc1ccc(OCC(O)CNC(C)C)c(C(C)=O)c1 (centres undefined)	0	0.182
CC(C)NCC(O)COc1ccc(NC(N)=O)cc1 (centres undefined)	20	0.631
CCCNC(=O)Nc1ccc(OCC(O)CNC(C)(C)C)cc1 (centres undefined)	0	0.033
CCNC(=O)Nc1ccc(OCC(O)CNC(C)C)c(CC)c1 (centres undefined)	33	0.118
CNC(=O)Nc1ccc(OCC(O)CNC(C)C)c(Br)c1 (centres undefined)	63	0.033
CCCCCCNC(=O)Nc1ccc(OCC(O)CNC(C)C)cc1 (centres undefined)	0	0.274
CCNC(=O)Nc1ccc(OCC(O)CNC(C)C)c(Cl)c1 (centres undefined)	0	0.188
CCCNC(=O)Nc1ccc(OCC(O)CNC(C)C)c(C)c1 (centres undefined)	59	0.061
CCNC(=O)Nc1ccc(OCC(O)CNC(C)C)c(SC)c1 (centres undefined)	32	0.198
CC(C)NCC(O)COc1cccc(NC(N)=O)c1 (centres undefined)	58	0.028
CNC(=O)Nc1ccc(OCC(O)CNC(C)C)cc1 (centres undefined)	29	0.07
